How the values were obtained:
[1] = test system: Duck Hepatitis B Virus (DHBV); test: Viral inactivation in leukoreduced PRBC with Erythrosol (Example 5), DHBV; assay type: cell-based; conditions: red cells, 0.1 mM inactivation compound, 3 mM glutathione, two hours at RT
Salmonella choleraesuis = test: Bacterial inactivation in leukoreduced PRBC with Erythrosol (Example 5), S. choleraesuis; assay type: cell-based; conditions: red cells, 0.2 mM compound, 2 mM glutathione, two hours at RT
[2] = test system: Herpes Simplex Virus (HSV); test: Viral inactivation in leukoreduced PRBC with Erythrosol (Example 5), HSV; assay type: cell-based; conditions: red cells, 0.003 mM inactivation compound, 3 mM glutathione, two hours at RT
[3] = test system: Staphylococcus epidermidis; test: Bacterial inactivation in leukoreduced PRBC with Erythrosol (Example 5), S. epidermidis; assay type: cell-based; conditions: red cells, 0.2 mM compound, 2 mM glutathione, two hours at RT
[4] = test system: Vesicular Stomatitis Virus type Indiana (VSIV); assay type: cell-based
Serratia liquifaciens = test: Bacterial inactivation in leukoreduced PRBC with Erythrosol (Example 5), S. liquifaciens; assay type: cell-based; conditions: red cells, 0.2 mM compound, 2 mM glutathione, two hours at RT
Cell-Associated HIV = test: Viral inactivation in leukoreduced PRBC with Erythrosol (Example 5), cell-associated HIV; assay type: cell-based, Human Immunodeficiency Virus; conditions: red cells, 0.2 mM inactivation compound, 3 mM glutathione, two hours at RT
Pseudomonas aeruginosa = test: Bacterial inactivation in leukoreduced PRBC with Erythrosol (Example 5), P. aeruginosa; assay type: cell-based; conditions: red cells, 0.2 mM compound, 2 mM glutathione, two hours at RT
Deinococcus radiodurans = test: Bacterial inactivation in leukoreduced PRBC with Erythrosol (Example 5), D. radiodurans; assay type: cell-based; conditions: red cells, 0.2 mM compound, 2 mM glutathione, two hours at RT
Bluetongue type 11 Virus = test: Viral inactivation in leukoreduced PRBC with Erythrosol (Example 5), Bluetongue type 11; assay type: cell-based; conditions: red cells, 0.2 mM inactivation compound, 2 mM glutathione, two hours at RT
[5] = test system: Bovine Viral Diarrhea Virus (BVDV); test: Viral inactivation in leukoreduced PRBC with Erythrosol (Example 5), BVDV; assay type: cell-based; conditions: red cells, 0.1 mM inactivation compound, 1 mM glutathione, two hours at RT
Listeria monocytogenes = test: Bacterial inactivation in leukoreduced PRBC with Erythrosol (Example 5), L. monocytogenes; assay type: cell-based; conditions: red cells, 0.2 mM compound, 2 mM glutathione, two hours at RT
Bacilus subtilis = test: Bacterial inactivation in leukoreduced PRBC with Erythrosol (Example 5), B. subtilis; assay type: cell-based; conditions: red cells, 0.2 mM compound, 2 mM glutathione, two hours at RT
Yersinia enterocolitica = test: Bacterial inactivation in leukoreduced PRBC with Erythrosol (Example 5), Y. enterocolitica; assay type: cell-based; conditions: red cells, 0.2 mM compound, 2 mM glutathione, two hours at RT
Staphylococcus aureus = test: Bacterial inactivation in leukoreduced PRBC with Erythrosol (Example 5), S. aureus; assay type: cell-based; conditions: red cells, 0.2 mM compound, 2 mM glutathione, two hours at RT
[6] = test system: Respiratory Synctial Virus (RSV); test: Viral inactivation in leukoreduced PRBC with Erythrosol (Example 5), RSV; assay type: cell-based; conditions: red cells, 0.2 mM inactivation compound, 2 mM glutathione, two hours at RT
Serratia marcescens = test: Bacterial inactivation in leukoreduced PRBC with Erythrosol (Example 5), S. marcescens; assay type: cell-based; conditions: red cells, 0.2 mM compound, 2 mM glutathione, two hours at RT
Escherichia coli K12 = test: Bacterial inactivation in leukoreduced PRBC with Erythrosol (Example 5), E. coli K12; assay type: cell-based; conditions: red cells, 0.2 mM compound, 2 mM glutathione, two hours at RT
Cell-Free HIV = test: Viral inactivation in leukoreduced PRBC with Erythrosol (Example 5), cell-free HIV; assay type: cell-based, Human Immunodeficiency Virus; conditions: red cells, 0.2 mM inactivation compound, 3 mM glutathione, two hours at RT

O=C(CCNc1c2ccccc2nc2ccccc12)OCCN(CCCl)CCCl [β-alanine, N-(acridin-9-yl), 2-[bis(2-chloroethyl)amino]ethyl ester]
Log inactivation DHBV [1]: >6.3 log
Log inactivation Salmonella choleraesuis (Salmonella choleraesuis): 4.8 log
Log inactivation HSV [2]: >6.0 log
Log inactivation Staphylococcus epidermidis [3]: >6.9 log
Log inactivation VSIV [4]: 5.7 log
Log inactivation Serratia liquifaciens (Serratia liquifaciens): 3.8 log
Log inactivation Cell-Associated HIV (Cell-Associated HIV): >6.2 log
Log inactivation Pseudomonas aeruginosa (Pseudomonas aeruginosa): 4.5 log
Log inactivation Deinococcus radiodurans (Deinococcus radiodurans): >6.0 log
Log inactivation Bluetongue type 11 (Bluetongue type 11 Virus): 6.0 log
Log inactivation BVDV [5]: >7.3 log
Log inactivation Listeria monocytogenes (Listeria monocytogenes): >7.1 log
Log inactivation Bacilus subtilis (Bacilus subtilis): >6.3 log
Log inactivation Yersinia enterocolitica (Yersinia enterocolitica): 7.4 log
Log inactivation Staphylococcus aureus (Staphylococcus aureus): >5.1 log
Log inactivation RSV [6]: 5.6 log
Log inactivation Serratia marcescens (Serratia marcescens): 4.1 log
Log inactivation Eseherichia coli K12 (Escherichia coli K12): 7.4 log
Log inactivation Cell-Free HIV (Cell-Free HIV): >6.5 log

Source: patent US20030113704A1, “Methods for inactivation of pathogens in biological materials” (priority 2000, published 2003)
